Reference: paper PMC7203245, “Lacosamide intake during pregnancy increases the incidence of foetal malformations and symptoms associated with schizophrenia in the offspring of mice” (Scientific Reports, 2020)

Columns and labels:
adult male mice [1] = assay: Tail suspension test; type: in vivo; settings: 5 minutes
Procedure: (§1) All trials were performed by an experimenter blind to the drug treatment.
Tail suspension test. Depression-like behaviour in mice was determined by measuring the time spent immobile in the tail suspension test. Mice were suspended above the floor by attaching the end of their tail to wire netting, and the time spent immobile during a 5 min test session was measured.

adult male mice [2] = assay: Object recognition memory; type: in vivo; settings: 1 hour after the training session; LCM in utero
Procedure: as §1
Object recognition memory. Mice were tested in a rectangular arena (55 x 40 x 40 cm) situated in a room with dim lighting and constant background noise. The object recognition protocol was described extensively elsewhere^2. Briefly, two equal objects were placed in the arena during a 15 minutes training phase and the animal’s memory of the original object was assessed by comparing the amount of time spent exploring the novel object against that for the familiar one in two sessions (of 10 minutes) performed 1 and 24h after training (for short-term and long-term memories [STM and LTM] respectively). The time spent exploring each object was recorded and the relative exploration of the novel object was expressed by a discrimination index [DI = (tnovel-tfamiliar)/(tnovel+tfamiliar)]. The criteria for exploration were based strictly on active exploration. Exploration of an object was defined as directing the nose toward the object at a distance of 1.5 cm and/or touching the object with the nose or vibrissae. Circling or sitting on the object were not considered exploratory behaviours.

[3] = LCM concentration in serum of dams by UHPLC-QTOF-MS; type: in vivo, mice; settings: female, mouse, intraperitoneal, 24 h post-injection, 2 dams in each dose group (10-120 mg/kg), no relationship with dose
Procedure: Maternal weights were assessed at the end of the treatment periods. After 14.5 days of gestation (embryonic day14.5, E14.5), blood was extracted from the orbital sinus of the pregnant dams under anaesthesia (70 mg/kg Thiobarbital: Braun Medical S.A. Spain), as described previously[56] and sacrificed by neck dislocation immediately after. Blood samples were centrifuged immediately, and the serum was collected and stored at -80 °C for further chemical analysis.
Samples were extracted as described previously[25] with slight modifications. Briefly, embryos were rinsed with cold saline and ultrapure water, and their wet-weight was determined. They were then homogenized using a 150 T Ultrasonic homogenizer (Fisher Scientific, Spain) and 10 µL of an internal standard solution (IS: aqueous D^3-LCM IS, 5 mg mL^−1) was added to the biological samples (embryos or 50 µL of serum). […] The mixture was vortexed vigorously for 3 min and centrifuged at 13,000 g for 5 min. The supernatant was transferred to a new Eppendorf tube and evaporated to dryness in a stream of nitrogen gas. The residue was reconstituted with 50 µL of LC-MS Ultrapure water, vortexed for 20 s and centrifuged at 13,000 g for 5 min. The supernatant was transferred to a conic micro insert to be injected onto the UHPLC system.
MS spectra data were collected between m/z 50 and 1000, and MS/MS spectra were registered between 50-300 Da. […]

pups = assay: Litter loss, neonatal lethality and body weight of pups born to dams given LCM during gestation; type: in vivo, mice; settings: for weight gain from P2 to P13: higher dose
Procedure: Thus, we used 10, 40, 80 and 120 mg/kg in mice, which corresponded to 56.7, 227, 454 and 681 mg/day in humans, considering an average weight of human to be 70 kg and that of mice to be 30 gr[52],[55]. Controls were administered the vehicle alone: saline solution 0.9% w/v. […] A total of 32 dams were initially treated daily, two days before mating and until the 14th day post-coitus. […] In the breastfeeding period, females were not under treatment given that a person will bottle feed the baby if they were on medication.
In this part of the study, dams were treated until the day of delivery. After analysing the embryo toxicity data, the treatments were categorized as controls (saline vehicle solution alone), low dose (40 mg/kg) and high dose (120 mg/kg). […] The day of birth was designated as postnatal day (P) P0 and the litter size delivered by each dam was recorded, checking each pup for gross abnormalities. Pups were nursed by their natural dams until weaning and from PD 2, the pups were weighed and neonatal behavioural tests were carried out on 12 control mice, 12 low dose and 10 high dose mice from 7 litters. During testing whole litters were separated from the dams and maintained for 30 min in a warm environment. At this stage, males and females were pooled for neurodevelopmental screening. All testing was performed between 07:30 a.m. and 12:00 a.m., and the mice were weighed before performing the tests.

adult male mice [4] = assay: Pain assay (hot plate); type: in vivo; settings: 120 mg/kg LCM during gestation; at 52 and 55 degrees relative to control
Procedure: as §1
Pain assay. Pain behaviour was assessed in mice using the hot plate. For the hot-plate test, a glass cylinder (16 cm high, 16 cm in diameter) was used to constrain the mice to the heated surface of the plate. The plate surface was maintained at 50-55 ± 0.5 °C and the latency to commence paw-licking was measured, using a 30 s cut-off time for each of the tested temperatures. Each temperature was tested with 1h apart.

[5] = higher dose (120 mg/kg) to dams during gestation
[6] = lower dose (40 mg/kg) to dams during gestation

SMILES: COC[C@@H](NC(C)=O)C(=O)NCc1ccccc1 [LCM, R-2-acetamido-N-benzyl-3-methoxypropionamide]
- immobility time (tail suspension test) (adult male mice [1]; 40 mg/kg in utero): 82.58 ± 7.38 s
- immobility time (tail suspension test) (adult male mice [1]; 120 mg/kg in utero): 109.0 ± 7.69 s
- short-term memory in object recognition (adult male mice [2]): no effects
- concentration at 24 h [3]: 5 to 133 ng/mL
- dams that never gained weight, suggesting that they lost their litters (pups; 40 mg/kg LCM daily from second day of gestation to birth): 1/5
- dams that never gained weight, suggesting that they lost their litters (pups; 120 mg/kg LCM daily from second day of gestation to birth): 2/8
- body weight differences in adults (pups; both LCM doses (40 and 120 mg/kg in utero), adult mice): disappeared
- neonatal lethality (%) (pups; [5]): 15.38%
- neonatal lethality (pups) (pups; [5]): 10/65
- weight gain from P2 to P13 (pups; litter that died in the perinatal nursing period): 2 g
- weight gain from P2 to P13 (pups; other pups under the same condition): 6.1 g
- neonatal lethality (%) (pups; [6]): 9%
- neonatal lethality (pups) (pups; [6]): 3/33
- pups of an entire litter that died in the perinatal nursing period (P15-16) (pups; one dam exposed to higher dose): 11 pups
- thermal nociception in the hot plate test (adult male mice [4]): significant hyperalgesia
